According to patent US20260022098A1, “BULLEYACONITINE A DERIVATIVE WITH ANALGESIC ACTIVITY, AND PREPARATION METHOD AND APPLICATION THEREOF” (priority 2023, published 2026):
Read-outs that look alike come from different tables or passages of the source. Marks after values point to notes of the source that are not given here.

What was measured:
Kunming mice [1] = assay: Analgesic activity by acetic acid-induced writhing method (writhing inhibition rate, ED50); type: in vivo; settings: Mus musculus, sc, read-out: Analgesia rate (%) ± SEM
Method: (§1) The experimental animals were Kunming mice (male:female=1:1), weighed 22+2 g, which were provided by Chengdu dossy experimental animals Co., ltd., China. The mice were kept in the animal room of the School of Life Science and Engineering, Southwest Jiaotong University, where the animal room was set at a temperature of 23±2° C., a humidity of […] and a photoperiod of 16:8 h (L:D). Before the experiment, the mice were freely fed for 2-3 days with water and feed to adapt to the new environment. Then, the mice were treated by water and food fasting for 12 h. 10 animals were allocated to each group to ensure that there are at least 6 sets of valid data in each group. The animal experiments were carried out in strict accordance with the national regulations on the management of experimental animals.
(§2) The compounds prepared in the examples provided herein (test sample set) and bulleyaconitine A (positive control set) were all dissolved with 0.1 mol/L HCl according to a molar ratio of 1:1, and then diluted with physiological saline to a concentration to be determined. Blank control was physiological saline containing 0.1 mol/L HCl. The animals in the control groups were subjected to the same treatment as those in experimental groups except that samples to be test were replaced with physiological saline.
(1) Determination of Analgesic Activity Through an Acetic Acid-Induced Writhing Method
10 mice were randomly selected, male:female=1:1, were placed in independent cages. Each mouse was injected subcutaneously with the sample solution mentioned above at a dose of 0.1 mL/10 g body weight. After 15 min, a 0.7% acetic acid solution was intraperitoneally injected. A number of writhing reactions in each mouse within 15 minutes was recorded. The group that the mice were injected with physiological saline subcutaneously was the blank group; the group that the mice were injected with the sample to be tested was the experimental group; and the group that the mice were injected with bulleyaconitine A was the positive group. The analgesic activity was represented by a percentage of the reduced number of writhing compared to the blank group (writhing inhibition rate), which were specifically as follows: writhing inhibition rate (analgesic activity)=(average number of writhing times in the blank group-average number of writhing times in the experimental group)/average number of writhing times in the blank group×100%.
Median Effective Dose (ED50) Determination
The sample to be tested was dissolved with 0.1 mol/L HCl according to the amount of the substance ratio of 1:1, and diluted with physiological saline according to the proportional series to obtain at least 5 groups with different dose concentrations. The writhing inhibition rate of each dose group was tested according to the acetic acid-induced writhing method mentioned above. The obtained dose-writhing inhibition data was entered into the statistical product and service solutions (SPSS) software (version 17.2), and the ED50 of the sample to be tested was calculated through the Probit regression method.

Kunming mice [2] = assay: Acute toxicity / median lethal dose (LD50) determination, subcutaneous injection; type: in vivo; parameters: key to Acute toxicity: if death occurred, (+) represented as positive; if no death occurred, (−) represented as negative; settings: mice administered 20 mg/kg subcutaneously, presence of death within 24 h
Method: as §1, §2
(2) Median Lethal Dose (LD50) Determination
The sample to be tested was dissolved with 0.1 mol/L HCl according to the amount of the substance ratio of 1:1, and diluted with physiological saline according to the required concentration. 10 mice in each group were randomly selected, half of which were male and half of which were female, and were placed in independent cages. Each mouse was injected subcutaneously with different sample solutions to be tested according to a dose of 0.1 mL/10 g body weight. In the preliminary toxicity experiment, the measured concentration was 20 mg/kg, and then based on the survival rate of the experimental animals in the preliminary experiment, the sample to be tested was set to at least 5 groups with different concentration dose according to the proportional series. The survival rate of mice within 24 h was recorded. The obtained dose-survival rate data was input into the SPSS software (version 17.2), and the LD50 of the sample was calculated according to the Probit regression method.

RAW 264.7 cells = assay: MTT assay, viability of RAW 264.7 cells; type: cell-based; settings: compound diluted to 30 mol/L (so in the source), 12 h
Method: The effect of the compound to be tested on viability of RAW 264.7 cells at a concentration of […] was assessed through MTT assay (Methylthiazolyldiphenyl-tetrazolium bromide assay), and the inhibition on NO release in the inflammatory response of LPS-induced RAW 264.7 cells at 30 µM was determined through Griess method. Specific methods were described as follows.
An MTT solution (5 mg/mL) was prepared with a PBS buffer, filter-sterilized through a 0.22 μm filter membrane, and stored protected from light at low temperature. Each compound was dissolved in DMSO to prepare a 50 mmol/L stock solution, and stored from light at low (frozen) temperature. The stock solution was diluted to 30 mol/L with DMEM (Dulbecco's modified Eagle's medium) containing 10% FBS (fetal bovine serum). RAW264.7 cells beyond third passage were added to a culture medium and gently pipetted to detach, forming a cell suspension. 10 μL of the cell suspension was applied onto a hemocytometer slide for counting, and cells were seeded into 96-well plates at a density of 6×10^3 cells per well with 100 μL of the cell suspension per well. After incubated at 37° C. with 5% CO2 for 24 h, supernatant was removed. A zero-adjustment group (CO group) received 100 μL of medium per well, the blank group (CK group) received 100 μL of DMSO (1/1000 dilution) per well, and the experimental groups received 100 μL of the test samples per well. After 12 h, supernatant was removed, and […] of MTT solution was added into each well at 120 μL per well. After incubated in COz at a constant temperature for 4 h, supernatant was removed, and DMSO was added into each well by 150 μL per well. The mixture was shaken at 50 r/min for 10 min and subjected to an absorbance test at 492 nm. Relative cell viability (x) was calculated through a formula as follows: relative cell viability (%)=(ODTest−ODCO)/(ODCK−ODCO)×100%.

[3] = dosing concentration 0.05 mg/kg, subcutaneous, acetic acid-induced writhing, mice

| SMILES | inhibition in vivo at 0.05 mg/kg (Kunming mice [1]; [3]) | inhibition in vivo at 0.5 mg/kg (Kunming mice [1]; dosing concentration 0.5 mg/kg, subcutaneous, acetic acid-induced writhing, mice) | Acute toxicity (Kunming mice [2]) | RAW cell viability (RAW 264.7 cells) | inhibition in vivo at 0.05 mg/kg (Kunming mice [1]) |
| --- | --- | --- | --- | --- | --- |
| CCO[C@]12C[C@H](OC)[C@@]3(OC(=O)C4CCCCC4)CC(C1[C@H]3OC(=O)c1ccc(OC)cc1)[C@]13C4[C@@H](OC)C2[C@H]1N(CC)C[C@]4(COC)CC[C@@H]3OC (stereo partly drawn) [Compound 14] | 40.3 ± 1.7% | 44.4 ± 2.1% | − | 13.36 ± 0.9***^ % |  |
| CCO[C@]12C[C@H](OC)[C@@]3(OC(=O)c4cccnc4)CC(C1[C@H]3OC(=O)c1ccc(OC)cc1)[C@]13C4[C@@H](OC)C2[C@H]1N(CC)C[C@]4(COC)CC[C@@H]3OC (stereo partly drawn) [Compound 28] | 36.1 ± 2.1% |  | − | 83.03 ± 4.69**^ % |  |
| CCO[C@]12C[C@H](OC)[C@@]3(OC(=O)c4cc(F)cc(F)c4)CC(C1[C@H]3OC(=O)c1cc(F)cc(F)c1)[C@]13C4[C@@H](OC)C2[C@H]1N(CC)C[C@]4(COC)CC[C@@H]3OC (stereo partly drawn) [Compound 74] |  |  | − |  | 23.9 ± 2.8% |
| CCO[C@]12C[C@H](OC)[C@@]3(OC(=O)c4ccccc4C)CC(C1[C@H]3OC(=O)c1ccccc1C)[C@]13C4[C@@H](OC)C2[C@H]1N(CC)C[C@]4(COC)CC[C@@H]3OC (stereo partly drawn) [Compound 75] |  |  | − |  | 10.8 ± 2.2% |
| CCO[C@]12C[C@H](OC)[C@@]3(OC(=O)c4cccc(OC)c4)CC(C1[C@H]3OC(=O)c1cccc(OC)c1)[C@]13C4[C@@H](OC)C2[C@H]1N(CC)C[C@]4(COC)CC[C@@H]3OC (stereo partly drawn) [Compound 76] |  |  | − |  | 0% |
| CCCC(=O)O[C@@H]1C2C3C[C@]1(OC(=O)CCC)[C@@H](OC)C[C@]2(OCC)C1[C@H](OC)C2[C@@]4(COC)CC[C@H](OC)[C@@]32[C@@H]1N(CC)C4 (stereo partly drawn) [Compound 77] |  |  | − |  | 34.2 ± 1.8% |
| CCCC(=O)O[C@]12CC3C([C@H]1OC(=O)c1ccc(OC)cc1)[C@](OCC)(C[C@@H]2OC)C1[C@H](OC)C2[C@@]4(COC)CC[C@H](OC)[C@@]32[C@@H]1N(CC)C4 (stereo partly drawn) [Compound 78] |  |  | − |  | 31.7 ± 1.4% |
| CCO[C@]12C[C@H](OC)[C@@]3(OC(=O)C(C)C)CC(C1[C@H]3OC(=O)C(C)C)[C@]13C4[C@@H](OC)C2[C@H]1N(CC)C[C@]4(COC)CC[C@@H]3OC (stereo partly drawn) [Compound 80] |  |  | − |  | 19.1 ± 2.1% |
| CCO[C@]12C[C@H](OC)[C@@]3(OC(=O)C(C)C)CC(C1[C@H]3OC(=O)c1ccc(OC)cc1)[C@]13C4[C@@H](OC)C2[C@H]1N(CC)C[C@]4(COC)CC[C@@H]3OC (stereo partly drawn) [Compound 81] |  |  | − |  | 28.8 ± 1.2% |
| CCN1C[C@]2(COC)CC[C@H](OC)[C@@]34C5C[C@]6(OC(=O)C(C)C)[C@@H](OC)C[C@@](OC(C)=O)(C5[C@H]6OC(=O)c5ccc(OC)cc5)C([C@H](OC)C23)[C@@H]14 (stereo partly drawn) [Compound 82] |  |  | − |  | 33.3 ± 1.5% |
| CCN1C[C@]2(COC)CC[C@H](OC)[C@@]34C5C[C@]6(OC(=O)c7ccc(Cl)cc7)[C@@H](OC)C[C@@](OC(C)=O)(C5[C@H]6OC(=O)c5ccc(OC)cc5)C([C@H](OC)C23)[C@@H]14 (stereo partly drawn) [Compound 84] |  |  | − |  | 27 ± 1.4% |
| C/C=C/C(=O)O[C@@H]1C2C3C[C@]1(OC(=O)/C=C/C)[C@@H](OC)C[C@]2(OCC)C1[C@H](OC)C2[C@@]4(COC)CC[C@H](OC)[C@@]32[C@@H]1N(CC)C4 (stereo partly drawn) [Compound 85] |  |  | − |  | 22.4 ± 3.3% |
| C/C=C/C(=O)O[C@]12CC3C([C@H]1OC(=O)c1ccc(OC)cc1)[C@](OCC)(C[C@@H]2OC)C1[C@H](OC)C2[C@@]4(COC)CC[C@H](OC)[C@@]32[C@@H]1N(CC)C4 (stereo partly drawn) [Compound 86] |  |  | − |  | 22.8 ± 1.8% |
| C/C=C/C(=O)O[C@]12CC3C([C@H]1OC(=O)c1ccc(OC)cc1)[C@](OC(C)=O)(C[C@@H]2OC)C1[C@H](OC)C2[C@@]4(COC)CC[C@H](OC)[C@@]32[C@@H]1N(CC)C4 (stereo partly drawn) [Compound 87] |  |  | − |  | 17.3 ± 3.1% |
| CCO[C@]12C[C@H](OC)[C@@]3(OC(=O)CC(C)(C)C)CC(C1[C@H]3OC(=O)c1ccc(OC)cc1)[C@@]13C4[C@@H]2[C@H](OC)C1[C@@](COC)(CC[C@@H]3OC)CN4CC (stereo partly drawn) [Compound 89] | 33.7 ± 2.4% |  | − |  |  |
| CCO[C@]12C[C@H](OC)[C@@]3(OC(=O)c4ccc(Br)cc4)CC(C1[C@H]3OC(=O)c1ccc(OC)cc1)[C@]13C4[C@@H](OC)C2[C@H]1N(CC)C[C@]4(COC)CC[C@@H]3OC (stereo partly drawn) [Compound 91] |  |  | − |  | 31.4 ± 1.5% |
| CCN1C[C@]2(COC)CC[C@H](OC)[C@@]34C5C[C@]6(OC(=O)c7ccc(Br)cc7)[C@@H](OC)C[C@@](OC(C)=O)(C5[C@H]6OC(=O)c5ccc(OC)cc5)C([C@H](OC)C23)[C@@H]14 (stereo partly drawn) [Compound 92] |  |  | − |  | 4.12 ± 1.7% |
| CCO[C@]12C[C@H](OC)[C@@]3(OC(=O)Cc4cccs4)CC(C1[C@H]3OC(=O)Cc1cccs1)[C@]13C4[C@@H](OC)C2[C@H]1N(CC)C[C@]4(COC)CC[C@@H]3OC (stereo partly drawn) [Compound 93] |  |  | − |  | 10.5 ± 2.3% |
| CCO[C@]12C[C@H](OC)[C@@]3(OC(=O)c4ccc(OC(F)(F)F)cc4)CC(C1[C@H]3OC(=O)c1ccc(OC(F)(F)F)cc1)[C@]13C4[C@@H](OC)C2[C@H]1N(CC)C[C@]4(COC)CC[C@@H]3OC (stereo partly drawn) [Compound 94] |  |  | − |  | 0% |
| CCO[C@]12C[C@H](OC)[C@@]3(OC(=O)c4cccc(C#N)c4)CC(C1[C@H]3OC(=O)c1cccc(C#N)c1)[C@]13C4[C@@H](OC)C2[C@H]1N(CC)C[C@]4(COC)CC[C@@H]3OC (stereo partly drawn) [Compound 95] |  |  | − |  | 23.8 ± 1.1% |
| CCO[C@]12C[C@H](OC)[C@@]3(OC(=O)c4cc([N+](=O)[O-])cc([N+](=O)[O-])c4)CC(C1[C@H]3OC(=O)c1cc([N+](=O)[O-])cc([N+](=O)[O-])c1)[C@]13C4[C@@H](OC)C2[C@H]1N(CC)C[C@]4(COC)CC[C@@H]3OC (stereo partly drawn) [Compound 96] |  |  | − |  | 30.1 ± 1.3% |
